From patent publication US9370510B2, “Small molecule compounds to treat hearing loss” (FATE THERAPEUTICS, INC., priority 2012, dated 2016)

Key:
Type in all cases: cell-based, rat
[1] = system: hair cell-damaged cochlea/modiolus explants; assay: proliferating supporting cells (BrdU+/Sox2+) in hair cell-damaged cochlea/modiolus explants, confocal microscopy; conditions: three days, after 1 mM tobramycin for three days
Experimental: Postnatal day 5 rat cochlea cochlea/modiolus explants were collected and cultured with 1 mM tobramycin for three days to kill hair cells. Cultures were then treated for three days with DMSO, 3 uM bromo benzyl ellipticinium, 60 uM CHIR99021, or both. Tissues were fixed with 4% paraformaldehyde, and cochlea were removed from surrounding tissue and immunostained with anti-SOX2 and anti-BrdU antibodies. Whole mount confocal microscopy was used to identify proliferating supporting cells (Brdu+/Sox2+) counted in 300 um of the basal-most cochlea. Cochlea were analyzed in triplicates per treatment group.

[2] = system: p27; assay: p27 protein levels in hair cell-damaged (tobramycin) cochlear explants by western blot; conditions: 3 uM, 24 hours, after 1 mM tobramycin for two days, vs vehicle (DMSO) (FIG. 4)
Experimental: (§1) Postnatal day 5 rat cochlea were collected and cultured with 1 mM tobramycin for two days to kill hair cells. Cultures were then treated with 3 uM bromo benzyl ellipticinium dissolved in DMSO or DMSO alone (negative control) for 24 hours.
(§2) Cochlear explant extracts were analyzed by western blotting. Detergent-solubilized extracts were electrophoresed on a polyacrylamide gel, and the separated denatured proteins transferred to a PVDF membrane. Antibodies to p27, p57, phosphorylated Histone H3, phosphorylated p130 and the house-keeping gene, β-actin were used with infrared dye-conjugated secondary antibodies and quantified by fluorescence. Levels of p27, p57, phosphorylated Histone H3, and phosphorylated p130 were normalized to the beta-actin signal before comparing treated and control samples.

[3] = system: hair cell-damaged cochlear explants; assay: cell proliferation (phosphorylated Histone H3) in hair cell-damaged cochlear explants by western blot; conditions: 3 uM, 24 hours, after 1 mM tobramycin for two days, vs vehicle (DMSO) (FIG. 4)
Experimental: as §1, §2

Row | SMILES | BrdU+/Sox2+ ells/300 μm of Basal Cochlea (Mean ± SD, n = 3) ([1]; 60 μM) [ells/300 μm] | p27 protein levels [2] | cell proliferation [3] | BrdU+/Sox2+ ells/300 μm of Basal Cochlea (Mean ± SD, n = 3) ([1]; 3 μM) [ells/300 μm]
1 | Cc1c[nH]c(-c2cnc(NCCNc3ccc(C#N)cn3)nc2-c2ccc(Cl)cc2Cl)n1 [CHIR99021, reference compound] | 0 ± 0 |  |  | 
2 | Cc1c2cc[n+](Cc3ccccc3)cc2c(C)c2c1[nH]c1ccccc12 [bromo benzyl ellipticinium, Bromo Benzyl Ellipticinium] |  | reduced | increased | 0 ± 0
